Assay results as given in paper PMC3990405 (Journal of controlled release : official journal of the …, 2013).
Read-outs that look alike come from different tables or passages of the source.

Key:
[1] = Plasma pharmacokinetics after i.m. injection proximal to the sciatic nerve; format: in vivo, C57BL/6 mice
phosphorylated NF-κB p65 = test: TNF-induced NF-κB p65 phosphorylation in U937 monocytes; format: cell-based, human
[2] = format: in vivo, C57BL/6 mice
[3] = test system: TNFα-induced cytotoxicity in L929 fibrosarcoma cells; test: L929 cytoprotection assay against TNFα; format: cell-based, murine
L929 cells = test: L929 cell proliferation / cytotoxicity without TNFα; format: cell-based, murine; conditions: curcumin in DMSO; not shown
[4] = female, C57BL/6, mouse, plasma, im, 40 μl of 6 mM

AUC [1, 4]: 0.87 ± 0.13 µM·h
Tmax [1, 4]: 1 to 2 h
time window with plasma curcumin significantly above naïve plasma ([1]; mouse, i.m., one-way ANOVA p < 0.0001): 0.5 to 4 h
Mass of curcumin in injection-site tissue ([2]; 0 h, maximum recoverable, injected after sacrifice, n = 1): 158 nmol
%ID (nmol/nmol) at injection site ([2]; 0 h, maximum recoverable, n = 1): 59 %ID
%ID (nmol/nmol) at injection site ([2]; 2 h, mean ± SEM): 36 ± 8.9 %ID
Mass of curcumin in injection-site tissue ([2]; 2 h, mean ± SEM): 98 ± 24 nmol
%ID (nmol/nmol) at injection site ([2]; 48 h, mean ± SEM): 0.25 ± 0.002 %ID
Mass of curcumin in injection-site tissue ([2]; 48 h, mean ± SEM): 0.67 ± 0.004 nmol
%ID (nmol/nmol) at injection site ([2]; 96 h, mean ± SEM): 0.14 ± 0.04 %ID
Mass of curcumin in injection-site tissue ([2]; 96 h, mean ± SEM): 0.39 ± 0.12 nmol
SMILES: COc1cc(/C=C/C(=O)CC(=O)/C=C/c2ccc(O)c(OC)c2)ccc1O [curcumin]
attenuation of TNF-induced increases in NF-kB phosphorylation (phosphorylated NF-κB p65; high (5 μM) and low (0.5 μM) doses, 50 ng/ml TNFα 10 min): able to attenuate TNF-induced increases in NF-kB phosphorylation in a dose-dependent manner
effect on basal NF-kB phosphorylation (phosphorylated NF-κB p65; high (5 μM) and low (0.5 μM) doses, no TNFα): no statistically significant effect
attenuation of TNF-induced monocyte NF-κB activation (phosphorylated NF-κB p65; high micromolar dose (5 μM), 2 h pre-incubation, 50 ng/ml TNFα 10 min): equally attenuated
IC50 ([3]; Mus musculus, L929, 24 h): 13.5 µM
Hill slope, k ([3]; logistic fit, Equation 1): 1.472
dose with some cytotoxic effects (L929 cells): above 30 μM
